Data taken from BindingDB's records for patent US20250115607 (Hoffmann-La Roche, 2025).

Columns and labels:
Experiment in all cases: Phosphorylation Assay SIK1-3
[1] = biological target: Serine/threonine-protein kinase SIK1 (Homo sapiens, UniProt P57059)
Experimental: (§1) In the presence of SIK2 (resp. SIK1 or SIK3) and ATP the CHK-peptide ([…] with C-terminal arginine amide modification) were phosphorylated at one of the four feasible serine's. Only one phosphorylation is observed under the assay conditions. 60 nl of each compound dilution series (12 point; dilution factor 3, generally 30 μM to 170 pM) in DMSO were transferred by acoustic dispensing to the assay plate and 30 minutes pre-incubated (ambient temperature) after the addition of 5 μl SIK1 (5 nM) resp. 5 μl SIK2 (0.5 nM) or 7 μl SIK3 (1.5 nM) in assay-buffer (12.5 mM HEPES (pH 7.0), 10 mM magnesium acetate, 0.005% BSA). 10 μM CHK-peptide solution and 5 μl of 100 μM ATP for SIK1 & SIK2 resp. 3 μl for SIK3 in assay-buffer were added and incubated ambient for 45 minutes. 40 μl of 0.125% formic acid in water were added to quench the reaction. RapidFire (RF) Mass Spectrometry was utilized for data generation as described below. The multiple charged species (3-5 charges) for the phosphorylated and non-phosphorylated form measured by MRM (Multiple Reaction Monitoring; API5000 or 6500+) or EIC (Extracted Ion Current; QToF) were summed up and the ratio calculated (sum phosphorylated species/sum all species) for data evaluation. Normalization was performed by Genedata software based on the non-inhibition control DMSO and the commercially available STK inhibitor @1 μM YKL-05-099 (CAS number 1936529-65-5).

[2] = biological target: Serine/threonine-protein kinase SIK3 (Homo sapiens, UniProt Q9Y2K2)
Experimental: as §1

[3] = biological target: Serine/threonine-protein kinase SIK2 (Homo sapiens, UniProt Q9H0K1)
Experimental: as §1

Serine/threonine-protein kinase SIK1, sequence (P57059 whole entry): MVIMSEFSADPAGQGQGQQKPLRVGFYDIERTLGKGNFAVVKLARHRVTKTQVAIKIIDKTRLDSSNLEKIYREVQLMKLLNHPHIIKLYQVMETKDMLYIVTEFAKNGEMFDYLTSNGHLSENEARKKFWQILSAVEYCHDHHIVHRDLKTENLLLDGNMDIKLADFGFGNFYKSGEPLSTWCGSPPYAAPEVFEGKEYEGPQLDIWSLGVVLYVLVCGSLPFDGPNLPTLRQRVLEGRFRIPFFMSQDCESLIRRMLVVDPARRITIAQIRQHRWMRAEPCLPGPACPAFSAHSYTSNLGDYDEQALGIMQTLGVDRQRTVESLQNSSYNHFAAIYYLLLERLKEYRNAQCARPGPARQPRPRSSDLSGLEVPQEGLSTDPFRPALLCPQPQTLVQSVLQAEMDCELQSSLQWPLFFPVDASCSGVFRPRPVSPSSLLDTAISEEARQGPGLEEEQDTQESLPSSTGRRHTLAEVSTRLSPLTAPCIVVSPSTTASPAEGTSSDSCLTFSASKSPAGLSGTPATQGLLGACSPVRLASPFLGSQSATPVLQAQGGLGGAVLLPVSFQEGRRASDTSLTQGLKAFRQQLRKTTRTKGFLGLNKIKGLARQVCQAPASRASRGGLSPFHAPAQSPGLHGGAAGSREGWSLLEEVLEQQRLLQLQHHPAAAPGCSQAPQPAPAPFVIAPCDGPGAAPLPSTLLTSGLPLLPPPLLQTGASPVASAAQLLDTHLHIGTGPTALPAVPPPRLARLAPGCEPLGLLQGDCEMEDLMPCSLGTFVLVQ
Serine/threonine-protein kinase SIK3, sequence (Q9Y2K2 whole entry): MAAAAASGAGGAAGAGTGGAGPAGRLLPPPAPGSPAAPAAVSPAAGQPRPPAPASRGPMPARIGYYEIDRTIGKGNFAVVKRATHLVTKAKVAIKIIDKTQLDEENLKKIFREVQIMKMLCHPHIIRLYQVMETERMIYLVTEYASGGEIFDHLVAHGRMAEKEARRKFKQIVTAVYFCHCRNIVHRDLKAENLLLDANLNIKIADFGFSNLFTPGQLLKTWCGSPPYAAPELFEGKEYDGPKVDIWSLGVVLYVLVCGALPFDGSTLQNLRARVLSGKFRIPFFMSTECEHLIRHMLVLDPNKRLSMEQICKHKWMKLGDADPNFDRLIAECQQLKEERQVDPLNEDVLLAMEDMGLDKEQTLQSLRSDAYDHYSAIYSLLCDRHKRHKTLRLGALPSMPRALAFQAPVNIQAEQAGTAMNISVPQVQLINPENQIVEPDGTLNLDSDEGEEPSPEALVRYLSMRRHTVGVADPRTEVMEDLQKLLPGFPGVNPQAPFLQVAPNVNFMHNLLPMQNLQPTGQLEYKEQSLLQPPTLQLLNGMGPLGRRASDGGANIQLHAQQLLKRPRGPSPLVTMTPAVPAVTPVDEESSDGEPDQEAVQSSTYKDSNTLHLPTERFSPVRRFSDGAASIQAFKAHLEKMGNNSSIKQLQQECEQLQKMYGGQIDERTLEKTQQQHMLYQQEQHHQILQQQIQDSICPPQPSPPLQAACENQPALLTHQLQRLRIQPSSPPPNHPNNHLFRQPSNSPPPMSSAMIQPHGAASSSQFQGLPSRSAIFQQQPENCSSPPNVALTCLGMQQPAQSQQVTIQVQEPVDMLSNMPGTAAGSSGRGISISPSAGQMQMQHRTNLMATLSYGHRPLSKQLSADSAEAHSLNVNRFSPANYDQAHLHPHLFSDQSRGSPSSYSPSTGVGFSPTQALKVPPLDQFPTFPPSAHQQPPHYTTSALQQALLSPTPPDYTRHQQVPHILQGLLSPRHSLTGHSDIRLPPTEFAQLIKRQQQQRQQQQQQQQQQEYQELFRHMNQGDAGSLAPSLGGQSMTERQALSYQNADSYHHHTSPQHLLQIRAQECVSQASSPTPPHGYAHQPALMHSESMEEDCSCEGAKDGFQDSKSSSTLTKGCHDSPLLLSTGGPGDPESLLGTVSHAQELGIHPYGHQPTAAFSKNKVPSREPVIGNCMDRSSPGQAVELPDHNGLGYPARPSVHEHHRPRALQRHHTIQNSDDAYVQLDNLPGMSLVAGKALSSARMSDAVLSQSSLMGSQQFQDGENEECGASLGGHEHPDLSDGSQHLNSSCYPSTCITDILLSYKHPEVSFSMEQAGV
Serine/threonine-protein kinase SIK2, sequence (Q9H0K1 whole entry): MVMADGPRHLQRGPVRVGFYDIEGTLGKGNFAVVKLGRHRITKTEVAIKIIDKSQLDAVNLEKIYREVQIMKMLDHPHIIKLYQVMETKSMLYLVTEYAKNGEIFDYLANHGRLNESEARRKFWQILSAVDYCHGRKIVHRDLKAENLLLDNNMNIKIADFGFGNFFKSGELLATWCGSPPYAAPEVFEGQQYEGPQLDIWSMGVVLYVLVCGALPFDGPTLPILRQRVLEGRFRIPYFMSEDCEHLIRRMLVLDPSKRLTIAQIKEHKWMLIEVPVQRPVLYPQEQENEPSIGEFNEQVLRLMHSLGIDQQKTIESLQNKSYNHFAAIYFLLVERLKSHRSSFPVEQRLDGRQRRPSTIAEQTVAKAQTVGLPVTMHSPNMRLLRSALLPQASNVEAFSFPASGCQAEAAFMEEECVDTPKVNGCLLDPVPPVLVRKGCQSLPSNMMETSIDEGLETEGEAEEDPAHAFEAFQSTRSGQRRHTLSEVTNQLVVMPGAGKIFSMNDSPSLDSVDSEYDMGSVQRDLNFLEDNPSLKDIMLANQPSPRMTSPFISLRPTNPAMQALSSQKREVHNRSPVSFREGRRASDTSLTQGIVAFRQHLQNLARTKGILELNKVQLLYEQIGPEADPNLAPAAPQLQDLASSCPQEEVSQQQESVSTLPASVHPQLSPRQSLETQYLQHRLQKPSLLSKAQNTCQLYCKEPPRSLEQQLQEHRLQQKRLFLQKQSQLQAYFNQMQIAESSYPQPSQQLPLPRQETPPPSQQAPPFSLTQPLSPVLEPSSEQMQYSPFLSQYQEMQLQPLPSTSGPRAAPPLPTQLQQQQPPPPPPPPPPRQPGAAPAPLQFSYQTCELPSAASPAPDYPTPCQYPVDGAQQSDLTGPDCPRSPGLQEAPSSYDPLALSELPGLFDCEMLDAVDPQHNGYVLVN

IC50 [1]: 19 µM
IC50 [2]: 2.06 µM
IC50 [3]: 0.687 µM
SMILES: CC(=O)c1ccc(-n2cnc3cc(N(C)c4ccc(C)nn4)ncc32)nc1-n1nc(C#N)cc1C [US20250115607, Example 5]
